Laboratory results taken from patent publication USRE44543E1, “Naphthalenic compounds as termite bait toxicants” (priority 2002, dated 2013).

Test system: Reticulitermes spp.
Assay: Field evaluation of bait matrix-NHA in underground Exterra bait stations, Past Christian, Mississippi
Format: in vivo, Reticulitermes flavipes
Procedure: Underground Exterra bait stations (Ensystex, Fayetteville, N.C.) were placed according to manufacturer directions around 20 houses in a heavily Reticulitermes spp. infested neighborhood surrounded by mainly pine forest in Past Christian, Miss. The stations were placed, approximately 20 feet apart and 5 feet away from the outside wall of the house. Monthly inspections were conducted to determine termite activity. Once termites were found in the station, 150 g of the ARS bait matrix (see Example 2) containing 250 ppm NHA was placed in the station for the first year of the experiment. The dose was increased in the second year to 500 ppm because of the constant movement of termites from the forest area to the stations. The bait matrix-NHA was prepared as above and exposed to the termites contained in the Exterra bait station, consecutively monthly inspections were conducted and bait matrix-NHA was added as required. Data on bait consumption, temperature of the soil and time to kill the colony was recorded. Reticulitermes flavipes were very abundant in the study site. The distribution of the infestation was in patches. For the typical infested house, termites were found in 3 of 6 stations. For this type of environmental setting, 600 g of bait matrix which is equivalent to 240 mg of NHA was required to kill the colony. It took about 9 months (from September-May) for the bait matrix to show its effectiveness which was evaluated by the presence of dead termites on the surface of the bait matrix container and interceptors.

[1] = date 01/29 (17th of 18, second winter)
[2] = date 02/26 (18th of 18, second winter)
[3] = typical infested house, termites in 3 of 6 stations

## O=C1c2cccc3cccc(c23)C(=O)N1O [NHA, N-hydroxynaphthalimide]
September-May
  time for the bait matrix to show its effectiveness (dead termites on bait container and interceptors): about 9 months
Date 01/29 (5th of 18)
  Active Stations Number: 6
  Active Stations Percentage: 24.0%
  Bait (Cum. weight in g) Consumed: 1,500 g
[1]
  Active Stations Number: 11
  Active Stations Percentage: 24.4%
  Bait (Cum. weight in g) Consumed: 11,850 g
Date 02/26 (6th of 18)
  Active Stations Number: 12
  Active Stations Percentage: 50.0%
  Bait (Cum. weight in g) Consumed: 1,500 g
[2]
  Active Stations Number: 15
  Active Stations Percentage: 33.3%
  Bait (Cum. weight in g) Consumed: 12,600 g
Date 03/27 (7th of 18)
  Active Stations Number: 13
  Active Stations Percentage: 56.5%
  Bait (Cum. weight in g) Consumed: 1,500 g
Date 05/01 (8th of 18)
  Active Stations Number: 16
  Active Stations Percentage: 55.2%
  Bait (Cum. weight in g) Consumed: 3,150 g
Date 05/29 (9th of 18)
  Active Stations Number: 11
  Active Stations Percentage: 36.7%
  Bait (Cum. weight in g) Consumed: 3,750 g
Date 06/26 (10th of 18)
  Active Stations Number: 16
  Active Stations Percentage: 50.0%
  Bait (Cum. weight in g) Consumed: 4,800 g
Date 07/31 (11th of 18)
  Active Stations Number: 12
  Active Stations Percentage: 33.3%
  Bait (Cum. weight in g) Consumed: 6,000 g
Date 08/28 (12th of 18)
  Active Stations Number: 17
  Active Stations Percentage: 47.2%
  Bait (Cum. weight in g) Consumed: 7,200 g
Date 09/25 (13th of 18)
  Active Stations Number: 21
  Active Stations Percentage: 52.5%
  Bait (Cum. weight in g) Consumed: 7,950 g
Date 09/26 (1st of 18), NHA 250 ppm first year, 500 ppm second year
  Active Stations Number: 22
Date 09/26 (1st of 18), from fully consumed bait bags
  Bait (Cum. weight in g) Consumed: 0.0 g
Date 09/26 (1st of 18), of cumulative stations ever active
  Active Stations Percentage: 95.7%
Date 10/27 (2nd of 18)
  Active Stations Number: 10
  Active Stations Percentage: 43.5%
  Bait (Cum. weight in g) Consumed: 600 g
Date 11/02 (14th of 18)
  Active Stations Number: 18
  Active Stations Percentage: 42.9%
  Bait (Cum. weight in g) Consumed: 10,800 g
Date 11/20 (3rd of 18)
  Active Stations Number: 10
  Active Stations Percentage: 41.7%
  Bait (Cum. weight in g) Consumed: 1,200 g
Date 11/27 (15th of 18)
  Active Stations Number: 13
  Active Stations Percentage: 28.9%
  Bait (Cum. weight in g) Consumed: 11,250 g
Date 12/18 (4th of 18)
  Active Stations Number: 8
  Active Stations Percentage: 33.3%
  Bait (Cum. weight in g) Consumed: 1,500 g
Date 12/29 (16th of 18)
  Active Stations Number: 13
  Active Stations Percentage: 28.9%
  Bait (Cum. weight in g) Consumed: 11,850 g
[3]
  NHA required to kill the colony (equivalent of bait matrix): 240 mg
  bait matrix required to kill the colony: 600 g
